Results: patent US20230183237A1, “COMPETITIVE AND NONCOMPETITIVE INHIBITORS OF THE MUSCARINIC ACETYLCHOLINE RECEPTOR M5” (Vanderbilt University, priority 2020, published 2023)

Target: T1, hM5 (Homo sapiens, UniProt P08912)
T1 construct: expressed in transfected cells
T1 sequence (P08912 1-532): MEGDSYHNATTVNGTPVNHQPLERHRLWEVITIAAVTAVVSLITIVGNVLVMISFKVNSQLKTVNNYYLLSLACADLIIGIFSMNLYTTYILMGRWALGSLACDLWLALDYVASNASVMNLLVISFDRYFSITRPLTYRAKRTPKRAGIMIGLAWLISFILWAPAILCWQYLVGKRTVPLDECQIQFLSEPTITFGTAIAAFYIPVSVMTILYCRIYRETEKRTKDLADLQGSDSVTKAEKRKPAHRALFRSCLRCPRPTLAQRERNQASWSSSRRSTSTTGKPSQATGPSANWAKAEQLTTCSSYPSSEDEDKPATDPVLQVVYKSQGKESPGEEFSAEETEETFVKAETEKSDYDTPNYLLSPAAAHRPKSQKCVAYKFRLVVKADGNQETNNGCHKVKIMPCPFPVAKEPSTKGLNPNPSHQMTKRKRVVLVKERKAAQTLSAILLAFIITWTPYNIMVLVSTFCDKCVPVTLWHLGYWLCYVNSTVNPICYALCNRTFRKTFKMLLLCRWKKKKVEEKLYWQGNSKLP
Assay: Calcium mobilization concentration-response (IC50 vs EC80 acetylcholine), CHO hM5
Format: cell-based
Settings: CELL LINE hM5; vs EC80 acetylcholine; read-out: IC50
Method in brief: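 CHO cells stably expressing hM5, dye-loaded, in HBSS/20 mM HEPES/2.5 mM probenecid, pH 7.4. Compounds were pre-incubated 140 s before an EC80 acetylcholine challenge, with calcium flux read kinetically.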

Row | SMILES | IC50 [nM]
1 | Cc1cc2ncnn2cc1C1CCN(S(=O)(=O)c2cnn(C)c2CN)CC1 [Compound 529, (1-methyl-4-((4-(7-methyl-[1,2,4]triazolo[1,5-a]pyridin-6-yl)piperidin-1-yl)sulfonyl)-1H-pyrazol-5-yl)methanamine] | 371
2 | Cn1ncc(S(=O)(=O)N2CCC(c3cn4ncnc4cc3F)CC2)c1CN [Compound 530, (4-((4-(7-fluoro-[1,2,4]triazolo[1,5-a]pyridin-6-yl)piperidin-1-yl)sulfonyl)-1-methyl-1H-pyrazol-5-yl)methanamine] | > 10000
3 | O=S(=O)(c1cnc2sccn12)N1CCC(c2cn3ncnc3cc2Cl)CC1 [Compound 531, 5-((4-(7-chloro-[1,2,4]triazolo[1,5-a]pyridin-6-yl)piperidin-1-yl)sulfonyl)imidazo[2,1-b]thiazole] | 6
4 | O=S(=O)(c1cnc(Cl)s1)N1CCC(c2cn3ncnc3cc2Cl)CC1 [Compound 532, 2-chloro-5-((4-(7-chloro-[1,2,4]triazoto[1,5-a]pyridin-6-yl)piperidin-1-yl)sulfonyl)thiazole] | 172
5 | Cc1c(C2CCN(S(=O)(=O)c3cnc4sccn34)CC2)cn2ncnc2c1F [Compound 533, 5-((4-(8-fluoro-7-methyl-[1,2,4]triazolo[1,5-a]pyridin-6-yl)piperidin-1-yl)sulfonyl)imidazo[2,1-b]thiazole] | 9
6 | Cc1c(C2CCN(S(=O)(=O)c3cnc(Cl)s3)CC2)cn2ncnc2c1F [Compound 534, 2-chloro-5-((4-(8-fluoro-7-methyl-[1,2,4]triazolo[1,5-a]pyridin-6-yl)piperidin-1-yl)sulfonyl)thiazole] | 1650
7 | Cc1cc2ncnn2nc1C1CCN(S(=O)(=O)c2cnc3sccn23)CC1 [Compound 535, 5-((4-(7-methyl-[1,2,4]triazolo[1,5-b]pyridazin-6-yl)piperidin-1-yl)sulfonyl)imidazo[2,1-b]thiazole] | 133
8 | Cc1cc2ncnn2nc1C1CCN(S(=O)(=O)c2cnc(Cl)s2)CC1 [Compound 536, 2-chloro-5-((4-(7-methyl-[1,2,4]triazolo[1,5-b]pyridazin-6-yl)piperidin-1-yl)sulfonyl)thiazole] | 9510
9 | [2H]C1([2H])CC(c2cn3ncnc3c(F)c2C)CC([2H])([2H])N1S(=O)(=O)c1cnc2sccn12 [Compound 537, 5-((4-(8-fluoro-7-methyl-[1,2,4]triazolo[1,5-a]pyridin-6-yl)piperidin-1-yl-2,2,6,6-d4)sulfonyl)imidazo[2,1-b]thiazole] | 11
10 | [2H]C1([2H])CC(c2cn3ncnc3cc2F)CC([2H])([2H])N1S(=O)(=O)c1cnc2sccn12 [Compound 538, 5-((4-(7-fluoro-[1,2,4]triazolo[1,5-a]pyridin-6-yl)piperidin-1-yl-2,2,6,6-d4)sulfonyl)imidazo[2,1-b]thiazole] | 125
11 | Cc1nnc(S(=O)(=O)N2CCC(c3cn4ncnc4cc3C)CC2)s1 [Compound 539, 2-methyl-5-((4-(7-methyl-[1,2,4]triazolo[1,5-a]pyridin-6-yl)piperidin-1-yl)sulfonyl)-1,3,4-thiadiazole] | 31
12 | Cc1nnc(S(=O)(=O)N2CCC(c3cn4ncnc4cc3Cl)CC2)s1 [Compound 540, 2-((4-(7-Chloro[1,2,4]triazolo[1,5-a]pyridin-6-yl)piperidin-1-yl)sulfonyl)-5-methyl-1,3,4-thiadiazole] | 28
13 | Cn1cnnc1S(=O)(=O)N1CCC(c2cn3ncnc3cc2Cl)CC1 [Compound 541, 7-chloro-6-(1-((4-methyl-4H-1,2,4-triazol-3-yl)sulfonyl)piperidin-4-yl)-[1,2,4]triazolo[1,5-a]pyridine] | 261
14 | Cc1c(C2CCN(S(=O)(=O)c3nncn3C)CC2)cn2ncnc2c1F [Compound 542, 8-fluoro-7-methyl-6-(1-((4-methyl-4H-1,2,4-triazol-3-yl)sulfonyl)piperidin-4-yl)-[1,2,4]triazolo[1,5-a]pyridine] | 1710
15 | CC(=O)NCc1c(S(=O)(=O)N2CCC(c3cn4ncnc4cc3C)CC2)cnn1C [Compound 543, N-((1-methyl-4-((4-(7-methyl-[1,2,4]triazolo[1,5-a]pyridin-6-yl)piperidin-1-yl)sulfonyl)-1H-pyrazol-5-yl)methyl)acetamide] | > 10000
16 | O=S(=O)(c1cnn2ccccc12)N1CCC(c2cn3ncnc3cc2Cl)CC1 [Compound 544, 7-chloro-6-(1-(pyrazolo[1,5-a]pyridin-3-ylsulfonyl)piperidin-4-yl)-[1,2,4]triazolo[1,5-a]pyridine] | 15

Row | SMILES | IC50 [nM]
17 | Cc1c(C2CCN(S(=O)(=O)c3cnn4ccccc34)CC2)cn2ncnc2c1F [Compound 545, 8-fluoro-7-methyl-6-(1-(pyrazolo[1,5-a]pyridin-3-ylsulfonyl)piperidin-4-yl)-[1,2,4]triazolo[1,5-a]pyridine] | 33
18 | Cc1cc2ncnn2nc1C1CCN(S(=O)(=O)c2cnn3ccccc23)CC1 [Compound 546, 7-methyl-6-(1-(pyrazolo[1,5-a]pyridin-3-ylsulfonyl)piperidin-4-yl)-[1,2,4]triazolo[1,5-b]pyridazine] | 534
19 | [2H]C1([2H])CC(c2cn3ncnc3cc2C)CC([2H])([2H])N1S(=O)(=O)c1cnn(C)c1C#N [Compound 547, 1-methyl-4-((4-(7-methyl-[1,2,4]triazolo[1,5-a]pyridin-6-yl)piperidin-1-yl-2,2,6,6-d4)sulfonyl)-1H-pyrazole-5-carbonitrile] | 10
20 | Cc1cc(N(C)C)ncc1C1CCN(S(=O)(=O)c2cnn(C)c2C)CC1 [Compound 550, 5-(1-((1,5-dimethyl-1H-pyrazol-4-yl)sulfonyl)piperidin-4-yl)-N,N,4-trimethylpyridin-2-amine] | 9
21 | Cc1cc(N(C)C)ncc1C1CCN(S(=O)(=O)c2cnn(C)c2Cl)CC1 [Compound 551, 5-(1-((5-chloro-1-methyl-1H-pyrazol-4-yl)sulfonyl)piperidin-4-yl)-N,N,4-trimethylpyridin-2-amine] | 7
22 | Cc1ncc(S(=O)(=O)N2CCC(c3cnc(N(C)C)cc3C)CC2)s1 [Compound 552, N.N,4-trimethyl-5-(1-((2-methylthiazol-5-yl)sulfonyl)piperidin-4-yl)pyridin-2-amine] | 94
23 | COCC(=O)NCc1c(S(=O)(=O)N2CCC(c3cn4ncnc4cc3F)CC2)cnn1C [Compound 553, N-((4-((4-(7-fluoro-[1,2,4]triazoto[1,5-a]pyridin-6-yl)piperidin-1-yl)sulfonyl)-1-methyl-1H-pyrazol-5-yl)methyl)-2-methoxyacetamide] | > 10000
24 | Cc1cc2ncnn2cc1C1CCN(S(=O)(=O)c2cnn(C)c2CNC(=O)c2ccccn2)CC1 [Compound 554, N-((1-Methyl-4-((4-(7-methyl-[1,2,4]triazolol[1,5-a]pyridin-6-yl)piperidin-1-yl)sulfonyl)-1H-pyrazol-5-yl)methyl)picolinamide] | 736
25 | Cn1ncc(S(=O)(=O)N2CCC(c3c(C(F)(F)F)nc4n3CCCC4)CC2)c1Cl [Compound 555, 3-(1-((5-chloro-1-methyl-1H-pyrazol-4-yl)sulfonyl)piperidin-4-yl)-2-(trifluoromethyl)-5,6,7,8-tetrahydroimidazo[1,2-a]pyridine] | > 10000
26 | Cc1nnc(S(=O)(=O)N2CCC(c3cn4ncnc4cc3C(F)F)CC2)s1 [Compound 556, 2-((4-(7-(difluoromethyl)-[1,2,4]triazolo[1,5-a]pyridin-6-yl)piperidin-1-yl)sulfonyl)-5-methyl-1,3,4-thiadiazole] | 342
27 | Cn1cc(S(=O)(=O)N2CCC(c3cn4ncnc4cc3Cl)CC2)nn1 [Compound 557, 7-chloro-6-(1-((1-methyl-1H-1,2,3-triazol-4-yl)sulfonyl)piperidin-4-yl)-[1,2,4]triazolo[1,5-a]pyridine] | 25
28 | Cc1c(C2CCN(S(=O)(=O)c3cn(C)nn3)CC2)cn2ncnc2c1F [Compound 558, 8-fluoro-7-methyl-6-(1-((1-methyl-1H-1,2,3-triazol-4-yl)sulfonyl)piperidin-4-yl)-[1,2,4]triazoto[1,5-a]pyridine] | 235
29 | Cc1cc2ncnn2nc1C1CCN(S(=O)(=O)c2cn(C)nn2)CC1 [Compound 559, 7-methyl-6-(1-((1-methyl-1H-1,2,3-triazol-4-yl)sulfonyl)piperidin-4-yl)-[1,2,4]triazolo[1,5-b]pyridazine] | > 10000
30 | Cc1ncc(S(=O)(=O)N2CCC(F)(c3cn4ncnc4cc3C)CC2)o1 [Compound 560, 5-((4-fluoro-4-(7-methyl-[1,2,4]triazolo[1,5-a]pyridin-6-yl)piperidin-1-yl)sulfonyl)-2-methyloxazole] | 3140
31 | Cc1cc(S(=O)(=O)N2CCC(F)(c3cn4ncnc4cc3C)CC2)sn1 [Compound 561, 5-((4-fluoro-4-(7-methyl-[1,2,4]triazolo[1,5-a]pyridin-6-yl)piperidin-1-yl)sulfonyl)-3-methylisothiazole] | 181
32 | CCc1cc2ncnn2cc1C1CCN(S(=O)(=O)c2cn(C)nn2)CC1 [Compound 562, 7-ethyl-6-(1-((1-methyl-1H-1,2,3-triazol-4-yl)sulfonyl)piperidin-4-yl)-[1,2,4]triazolo[1,5-a]pyridine] | 972
